Data on 41 molecules can be found in the Kinase Knowledgebase extract (Sharma et al. 2016).

One experiment deals with PIK3CA (human) (UniProt P42336). The experiment is described as follows: Inhibition of PIK3CA Kinase Activity.
In experiment [1] the target is PIK3CA (human), P42336 [Antiproliferation of PI3K Mutated BT20 Cells]. The experiment can be described thus: Cell-Based Assay.
PIK3CA (human), P42336 [Antiproliferation of PI3K Mutated BT20 Cells], sequence (P42336 whole entry, looked up, change not shown): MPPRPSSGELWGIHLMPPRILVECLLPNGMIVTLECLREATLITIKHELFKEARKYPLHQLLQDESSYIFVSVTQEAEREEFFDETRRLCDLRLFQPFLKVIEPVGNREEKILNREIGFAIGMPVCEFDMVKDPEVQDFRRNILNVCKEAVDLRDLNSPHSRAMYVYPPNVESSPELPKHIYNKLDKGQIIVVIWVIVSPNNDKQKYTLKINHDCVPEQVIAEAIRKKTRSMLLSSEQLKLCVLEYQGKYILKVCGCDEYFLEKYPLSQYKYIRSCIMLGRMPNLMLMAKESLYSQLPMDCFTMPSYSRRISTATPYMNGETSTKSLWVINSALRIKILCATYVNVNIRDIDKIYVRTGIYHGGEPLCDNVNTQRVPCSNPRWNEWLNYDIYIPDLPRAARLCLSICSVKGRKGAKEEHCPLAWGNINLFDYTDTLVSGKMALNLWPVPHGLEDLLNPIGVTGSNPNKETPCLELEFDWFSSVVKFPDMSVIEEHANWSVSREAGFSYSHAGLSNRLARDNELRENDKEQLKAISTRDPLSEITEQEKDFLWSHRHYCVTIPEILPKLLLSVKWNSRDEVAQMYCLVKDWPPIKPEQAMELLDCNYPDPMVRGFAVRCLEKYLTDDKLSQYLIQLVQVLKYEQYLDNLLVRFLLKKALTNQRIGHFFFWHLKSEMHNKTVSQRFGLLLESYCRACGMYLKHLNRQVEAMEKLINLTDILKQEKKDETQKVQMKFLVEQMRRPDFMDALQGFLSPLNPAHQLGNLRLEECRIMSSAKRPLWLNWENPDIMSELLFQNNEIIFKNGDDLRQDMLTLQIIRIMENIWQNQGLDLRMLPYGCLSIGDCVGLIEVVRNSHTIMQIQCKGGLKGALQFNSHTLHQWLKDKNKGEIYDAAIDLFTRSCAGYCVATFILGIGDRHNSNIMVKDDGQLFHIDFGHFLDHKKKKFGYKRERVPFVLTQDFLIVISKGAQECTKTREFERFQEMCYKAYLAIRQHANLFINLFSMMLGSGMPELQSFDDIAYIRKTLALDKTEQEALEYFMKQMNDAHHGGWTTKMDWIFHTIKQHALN

PIK3CA (human), sequence (P42336 whole entry, looked up): as the sequence (P42336 whole entry, looked up, change not shown) above

By IC50 is commonly meant the concentration that gives 50% inhibition. High values mean a need for much substance, low ones inhibition by little substance. At PIK3CA (human), `COc1ccc(Cn2c(=O)c(-c3ccccc3)cc3c(C)nc(N)nc32)cc1` came in with an IC50 of 310 nM. This counts as sub-micromolar. With `CCOc1ccc(-c2cc3c(C)nc(N)nc3n([C@H]3CC[C@H](O)CC3)c2=O)cn1`, the IC50 is 2.7 nM against PIK3CA (human) and 21.2 nM in experiment [1]. The corresponding values for `CNc1nc(C)c2cc(-c3ccc(Cl)nc3)c(=O)n(C3CCCC3)c2n1` are 29.7 nM and 146 nM.

`COc1ncc(-c2cc3c(C)nc(N)nc3n([C@H]3CC[C@@H](OCCO)CC3)c2=O)cc1F` registered an IC50 against PIK3CA (human) of 2.6 nM. At PIK3CA (human), `COc1ccc(-c2cc3c(C)nc(N)nc3n(N3CCCC3)c2=O)cn1` returned an IC50 of 23 nM. `CNc1nc(C)c2cc(C(=O)Nc3ccon3)c(=O)n(C3CCCC3)c2n1`: the results for the IC50 (against PIK3CA (human); in experiment [1]) were 5 nM and 72.2 nM, respectively. The corresponding values for `CNc1nc(C)c2cc(-c3ncccc3F)c(=O)n(C3CCCC3)c2n1` are 2100 nM and 8300 nM.

For the molecule `CNc1nc(C)c2cc(-c3ccc(OC)nc3)c(=O)[nH]c2n1`, the IC50 at PIK3CA (human) came out at 460 nM; in experiment [1], 2760 nM. `CCNc1nc(C)c2cc(CCC(=O)N(C)C)c(=O)n(C3CCCC3)c2n1` displayed an IC50 in experiment [1] of 10000 nM. On to `CNc1nc(C)c2cc(C(=O)Nc3cc[nH]n3)c(=O)n(C3CCCC3)c2n1`, for which the IC50 at PIK3CA (human) was 2.34 nM; in experiment [1] it was 16.4 nM. In the same order, the values of `Cc1nc(N)nc2c1cc(Br)c(=O)n2[C@H]1CC[C@H](O)CC1` are 44 nM and 305 nM.

In the case of `Cc1nc(N)nc2c1cc(-c1cnn(C)c1)c(=O)n2C1CCCC1`, the IC50 at PIK3CA (human) came out at 32 nM; in experiment [1], 623 nM. The corresponding values for `COc1ccc(-c2cc3c(C)nc(N)nc3n(CC3CCCO3)c2=O)cn1` (configuration not stated) are 21 nM and 120 nM. The corresponding values for `Cc1cc(-c2cc3c(C)nc(N)nc3n(C3CCCC3)c2=O)cnc1N(C)C` are 11 nM and 23.1 nM. The corresponding values for `CCNc1nc(C)c2cc(CCC(=O)Nc3ncc[nH]3)c(=O)n(C3CCCC3)c2n1` are 310 nM and 5710 nM. As to `COc1ncc(-c2cc3c(C)nc(N)nc3n([C@H]3C[C@H](OCC(N)=O)C3)c2=O)cc1F`, the values for the IC50 (on PIK3CA (human); in experiment [1]) were 2.14 nM and 12.6 nM, respectively. The corresponding values for `Cc1nc(N)nc2c1cc(Br)c(=O)n2CC1CCCO1` (configuration not stated) are 100 nM and 2130 nM. On to `COc1ccc(-c2cc3c(C)nc(N)nc3n(C3CCN(C(C)=O)C3)c2=O)cn1` (configuration not stated), for which the IC50 on PIK3CA (human) was determined as 7 nM; in experiment [1] it was 127 nM. On to `Cc1nc(N)nc2c1cc(-c1c[nH]nn1)c(=O)n2C(C)C`, for which the concentration for half-maximal inhibition (IC50) stood at 62 nM at PIK3CA (human) and 556 nM in experiment [1]. With `Cc1nc(N)nc2c1cc(-c1ccc(OC(C)C)nc1)c(=O)n2[C@H]1CC[C@H](O)CC1`, the IC50 on PIK3CA (human) is 9.4 nM; in experiment [1], 71.8 nM. In the same order, the values of `CCNc1nc(C)c2cc(CCC(=O)OCC)c(=O)n(C3CCCC3)c2n1` are 5500 nM and 10000 nM. With `C#Cc1cc2c(C)nc(N)nc2n(C2CCC2)c1=O`, the IC50 on PIK3CA (human) worked out at 110 nM; in experiment [1] it was 657 nM. The corresponding values for `Cc1nc(N)nc2c1cc(-c1cnc3[nH]ccc3c1)c(=O)n2C1CC1` are 17 nM and 138 nM. In the same order, the values of `Cc1nc(N)nc2c1cc(-c1cnn(C)c1)c(=O)n2[C@H]1CC[C@H](O)CC1` are 18 nM and 475 nM. As to `Cc1nc(N)nc2c1cc(-c1cnc3[nH]ccc3c1)c(=O)n2C(C)C`, the IC50 against PIK3CA (human) was found to be 2.3 nM; in experiment [1], 6.77 nM. Regarding `CCn1cc(CNC(=O)c2cc3c(C)nc(NC)nc3n(C3CCCC3)c2=O)cn1`, the 50% inhibitory concentration (IC50) at PIK3CA (human) amounted to 1200 nM. On PIK3CA (human), `CCn1nccc1NC(=O)c1cc2c(C)nc(N)nc2n(C(C)C)c1=O` had an IC50 of 3.9 nM. `COc1ccc(-c2cc3c(C)nc(N)nc3n([C@H]3CC[C@@H](OCC(N)=O)CC3)c2=O)cn1` registered an IC50 in experiment [1] of 20.5 nM. This lies in the double-digit nanomolar range. Same read-out and setting: as for `Cc1nc(N)nc2c1cc(-c1cnc3ccccc3c1)c(=O)n2CC(C)(C)O`, the figure is 322 nM.

In the case of `Cc1nc(N)nc2c1cc(-c1cn[nH]c1)c(=O)n2C1CCCC1`, the IC50 in experiment [1] was 3.49 nM. Compared with the last molecule, the IC50 is about 92-fold lower.

For the molecule `CNc1nc(C)c2cc(-c3cc(CN)ccc3F)c(=O)n(C3CCCC3)c2n1`, the IC50 in experiment [1] stood at 10000 nM. `COc1ccc(-c2cc3c(C)nc(N)nc3n(C3CC3)c2=O)cn1`: the IC50 on PIK3CA (human) was determined as 56 nM. In other words, the double-digit nanomolar range. In turn, `Cc1nc(NCC(C)(C)O)nc2c1cc(-c1cccc(O)c1)c(=O)n2C1CCCC1` came in with an IC50 in experiment [1] of 1180 nM. Molecule `Cc1nc(N)nc2c1cc(-c1cn[nH]c1)c(=O)n2C1CC1` came in with an IC50 against PIK3CA (human) of 78 nM. With `CCNc1nc(C)c2cc(CCC(=O)N(CC)CC)c(=O)n(C3CCCC3)c2n1`, the IC50 in experiment [1] came to 10000 nM. `Cc1nc(N)nc2c1cc(-c1cn[nH]c1)c(=O)n2N1CCCC1`: at PIK3CA (human), the IC50 amounted to 28 nM. `CCNc1nc(C)c2cc(CCC(=O)Nc3ccccn3)c(=O)n(C3CCCC3)c2n1`: in experiment [1], the IC50 is 10000 nM. As to `COc1ccc(-c2cc3c(C)nc(N)nc3n(C3CCOCC3)c2=O)cn1`, the half-maximal inhibitory concentration (IC50) in experiment [1] came out at 71.4 nM.

With `COc1ccc(-c2cc3c(C)nc(N)nc3n([C@H]3CC[C@H](O)CC3)c2=O)cn1`, in experiment [1], the IC50 is 3.6 nM. In turn, `COc1ncc(-c2cc3c(C)nc(N)nc3n(C3CCOCC3)c2=O)cc1F` displayed an IC50 against PIK3CA (human) of 1.43 nM.

Regarding `COc1ncc(-c2cc3c(C)nc(N)nc3n([C@H]3CC[C@H](OCC(N)=O)CC3)c2=O)cn1`, the IC50 in experiment [1] amounted to 51.9 nM.
